Laboratory results from publication PMC7048748, “Anxiolytic Drug FGIN-1-27 Ameliorates Autoimmunity by Metabolic Reprogramming of Pathogenic Th17 Cells” (Scientific Reports, 2020).

Key:
polarized Th17 cells = experiment: IL-17 production in fully differentiated Th17 cells after re-stimulation; type: cell-based, mouse; conditions: on re-stimulation
Procedure: We also tested whether FGIN-1-27 regulated IL-17 production in fully differentiated Th17 cells. […] Thus, FGIN-1-27 inhibits Th17 cell differentiation in vitro without compromising T cell activation or survival.
(§1) (h) Dose response plot showing effect of FGIN-1-27 on intracellular IL-17 and viability in pre- differentiated Th17 cells after re- stimulation. Data is normalized against […]
(i) Mean clinical scores of mice following active induction of EAE. Mice were injected i/p twice daily with vehicle or FGIN-1-27 for 7 days. Data are pooled from 5 mice/group. The error bars represent SEM.
(j) Binding of FGIN-1-27 to TSPO in a radioligand displacement assay. Inhibition of binding of control (radiolabeled PK-11195) was used to determine binding of FGIN- […]
(1 picture or pasted object on this page, not shown here)

STAT3 = experiment: Phospho Stat3 staining after IL-6 re-stimulation; type: cell-based, mouse; conditions: re-stimulation with IL-6
Procedure: The following day, cells were treated with either DMSO or of FGIN-1-27 (10 μM). For phospho-ZAP70 analyses, cells were stained after 24 hours of treatment using 10 μg/ml of biotinylated anti-CD3 (145-2C11, BD Biosciences) and anti-CD28 (37.51, BD Biosciences) antibodies on ice for 15 minutes, washed, and stimulated in presence of 20 μg/ml of Streptavidin for 10 minutes at 37 degrees. Cells were then fixed in 2% PFA, permeabilized in Methanol/Acetone and stained with anti-phospho ZAP70 antibody (n3kobu5, eBioscience) and anti-CD4 (RM4-5, eBioscience). For phospho-STAT3 analyses, cells were cultured for additional 24 hours in IL-6 free media, before stimulation with 100 ng/ml of mIL-6 for 30 minutes. Cells were then fixed in 2% PFA, permeabilized in Methanol/Acetone and stained with anti-phospho-STAT3 antibody (4/P-STAT3, BD Biosciences) and anti-CD4. Dead cells were excluded using Live/Dead […] (Thermo Fisher) staining prior to stimulation. page 3: Supplementary Figur es Fig S1 (a) Genomic browser screenshot of Tspo depicting normalized RNA-seq read coverage (RPM) in different T cell subsets. Data were downloaded from NCBI GEO (accession number GSE40918) and processed as in Figure 4A. […] (g) Transcript levels for S ta t3 after 24 hours of treatment with DMSO or FGIN-1-27 quantified by qPCR. […]

TSPO = biological target: T1, TSPO (Rattus norvegicus, UniProt P16257); experiment: TSPO (BZDp) antagonist radioligand displacement assay; type: binding
T1 construct: Eurofins Cerep (France), contract assay
Description: We explored the mechanism of action for FGIN-1-27 and whether the effect of FGIN-1-27 on Th17 differentiation was driven by TSPO, the reported target of this compound. We used two approaches: first, we investigated the correlation between FGIN-1-27 induced IL-17 down-regulation and binding to TSPO. For the binding studies, we used a biochemical radio ligand displacement assay with the well-characterized TSPO ligand PK-11195 as a tracer. […] Secondly, we purified CD4^+ T cells from spleen and lymph nodes of mice that lacked global expression of TSPO (TSPO KO mice)[19]. We added FGIN-1-27 to the cultures of CD4^+ T cells from controls or TSPO KO mice that were induced towards the Th17 differentiation program.
FGIN-1-27 were tested at 8 doses (0.3–40 µM) in the TSPO (BZDp) antagonist radioligand displacement assay at Eurofins Cerep (France). Radiolabeled PK11195 was used as a control and TSPO binding was calculated as a percent inhibition of control specific binding using the formula 100-(measured specific binding*100/control specific binding).
as §1
(i) Mean clinical scores of mice following active induction of EAE. Mice were injected i/p twice daily with vehicle or FGIN-1-27 for 7 days. Data are pooled from 5 mice/group. […]

[1] = design: method as in PMID 21119734, PMID 1326631, PMID 29698632; conditions: cited from earlier work
[2] = system: reactive oxygen species (ROS); experiment: Intracellular ROS with DCFDA; type: cell-based, mouse; conditions: 24-hour post treatment, 5 and 10 µM
Procedure: Figure 5 FGIN-1-27 induces amino acid starvation response (AAR). (a) MA-plot showing shrunken log2 fold-changes of detected genes between the DMSO and FGIN-1-27 RNA-seq samples, ranked by average normalized count. […] (b) Transcript levels for the indicated genes after 24 hours of treatment with DMSO or FGIN-1-27 quantified by qPCR. The error bars represent SD. (c) Western blot analysis for phosphorylated eIF2α and ATF4 24 hours after treatment with DMSO or FGIN-1-27 (5 and 10 μM). Data are representative of 3 independent experiments. (d) Amino acids in Th17 cells measured 72 hours after treatment with FGIN-1-27. The error bars represent SD. (e) ROS was measured using cell permeant reagent 2',7' -dichlorofluorescin diacetate (DCFDA) at 24 hours following treatment with FGIN-1-27. Filled grey histogram-DMSO, dotted line-FGIN-1-27 (10 μM) and dashed line indicates FGIN-1-27 (5 μM). (f) Dose response plot showing effect of FGIN-1-27 on intracellular IL-17 after pre-treatment with NAC (1 μM). Data are normalized using DMSO treated cells as 100% and the error bars represent SD. Increased amino acid synthesis and transport is characteristic of the amino acid starvation response (AAR)[20]. […] Induction of ATF4 can be an indication of oxidative stress and we measured reactive oxygen species (ROS) using the cell permeant reagent 2',7' -dichlorofluorescin diacetate (DCFDA).

T1 sequence (P16257 whole entry): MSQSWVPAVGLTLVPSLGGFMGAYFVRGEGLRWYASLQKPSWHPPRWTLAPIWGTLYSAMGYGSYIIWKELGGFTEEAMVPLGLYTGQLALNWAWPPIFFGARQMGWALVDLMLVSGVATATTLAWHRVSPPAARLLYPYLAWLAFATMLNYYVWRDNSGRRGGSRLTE

CCCCCCN(CCCCCC)C(=O)Cc1c(-c2ccc(F)cc2)[nH]c2ccccc12 [FGIN-1-27, N, N-di-n-hexyl 2-(4-fluorophenyl) indole-3-acetamide]
IL-17 producing cells in fully differentiated Th17 cells (polarized Th17 cells): fewer IL-17 producing cells were detected
phosphorylation of STAT3 (STAT3): did not show a defect
displacement of PK-11195 (TSPO; 0.3 µM, lowest validated testing concentration): more than 90%
binding to TSPO (TSPO; 0.3–40 µM): high affinity
crossing of the blood brain barrier [1]: can cross the blood brain barrier
intracellular ROS levels [2]: dose dependent increase
